The target in data set [1] is T1, human CYP2C19 (Homo sapiens, UniProt P33261).
The target in the next data set is human CYP2D6 (Homo sapiens, UniProt P10635).
In the next data set the target is T2, human CYP1A2 (Homo sapiens, UniProt P05177).
T2 sequence (P05177 1-516): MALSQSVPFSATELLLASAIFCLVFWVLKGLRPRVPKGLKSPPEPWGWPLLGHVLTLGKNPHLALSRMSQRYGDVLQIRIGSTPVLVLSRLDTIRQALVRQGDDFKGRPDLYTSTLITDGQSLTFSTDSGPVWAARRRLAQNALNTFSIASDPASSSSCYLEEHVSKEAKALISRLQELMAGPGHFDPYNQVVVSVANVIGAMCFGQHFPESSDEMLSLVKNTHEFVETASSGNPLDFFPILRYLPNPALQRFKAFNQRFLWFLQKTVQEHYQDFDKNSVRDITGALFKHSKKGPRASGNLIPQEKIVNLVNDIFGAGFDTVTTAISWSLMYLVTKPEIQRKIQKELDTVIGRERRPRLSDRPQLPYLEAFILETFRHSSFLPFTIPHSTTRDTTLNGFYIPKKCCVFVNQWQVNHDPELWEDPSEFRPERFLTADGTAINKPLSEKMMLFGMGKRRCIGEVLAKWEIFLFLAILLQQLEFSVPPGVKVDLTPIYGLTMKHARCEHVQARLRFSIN

A further data set has as its target human CYP2C9 (Homo sapiens, UniProt P11712). Briefly: biochemical.
The target in data set [2] is T1, human CYP2C19. Briefly: biochemical.
Setting [3] is: CYP2C9 AC50 (half-maximal activity concentration).
[4] abbreviates: CYP2C19 AC50 (half-maximal activity concentration).
[5] abbreviates: CYP2C9 IC50 (half-maximal inhibitory concentration).
Setting [6] is: CYP2C19 IC50 (half-maximal inhibitory concentration).

The values below come from paper PMC12155096 (International Journal of Molecular Sciences, 2025).

Structures can show the parent of a compound that is named as a salt. Where two headings read alike, the source gives them in different places.

Sequence of human CYP2D6 (P10635 whole entry): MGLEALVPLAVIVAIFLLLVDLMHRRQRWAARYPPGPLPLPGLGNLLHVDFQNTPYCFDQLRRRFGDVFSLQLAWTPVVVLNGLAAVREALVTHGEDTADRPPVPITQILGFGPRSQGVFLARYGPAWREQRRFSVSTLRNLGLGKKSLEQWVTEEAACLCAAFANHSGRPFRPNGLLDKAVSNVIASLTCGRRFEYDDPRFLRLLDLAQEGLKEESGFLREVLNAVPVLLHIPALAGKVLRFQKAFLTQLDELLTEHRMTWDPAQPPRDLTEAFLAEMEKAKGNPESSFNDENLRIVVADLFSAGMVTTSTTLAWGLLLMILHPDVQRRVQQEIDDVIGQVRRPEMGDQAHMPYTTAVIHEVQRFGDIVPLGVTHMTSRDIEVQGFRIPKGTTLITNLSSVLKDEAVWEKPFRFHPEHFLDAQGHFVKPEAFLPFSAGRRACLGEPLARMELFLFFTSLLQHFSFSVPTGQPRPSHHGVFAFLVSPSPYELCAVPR
T1 sequence (P33261 whole entry): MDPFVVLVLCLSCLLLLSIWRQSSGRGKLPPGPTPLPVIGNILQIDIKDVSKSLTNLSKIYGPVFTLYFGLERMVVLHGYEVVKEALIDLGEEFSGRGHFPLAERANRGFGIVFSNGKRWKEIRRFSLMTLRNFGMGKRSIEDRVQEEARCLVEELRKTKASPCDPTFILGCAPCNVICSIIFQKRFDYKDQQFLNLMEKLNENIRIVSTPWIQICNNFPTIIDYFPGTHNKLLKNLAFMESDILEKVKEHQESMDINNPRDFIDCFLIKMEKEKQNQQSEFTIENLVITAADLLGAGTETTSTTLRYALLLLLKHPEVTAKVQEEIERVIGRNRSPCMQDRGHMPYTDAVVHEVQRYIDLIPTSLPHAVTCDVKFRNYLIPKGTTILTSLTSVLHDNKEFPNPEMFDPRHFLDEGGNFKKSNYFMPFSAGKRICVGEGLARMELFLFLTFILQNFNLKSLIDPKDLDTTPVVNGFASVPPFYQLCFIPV
Sequence of human CYP2C9 (P11712 whole entry): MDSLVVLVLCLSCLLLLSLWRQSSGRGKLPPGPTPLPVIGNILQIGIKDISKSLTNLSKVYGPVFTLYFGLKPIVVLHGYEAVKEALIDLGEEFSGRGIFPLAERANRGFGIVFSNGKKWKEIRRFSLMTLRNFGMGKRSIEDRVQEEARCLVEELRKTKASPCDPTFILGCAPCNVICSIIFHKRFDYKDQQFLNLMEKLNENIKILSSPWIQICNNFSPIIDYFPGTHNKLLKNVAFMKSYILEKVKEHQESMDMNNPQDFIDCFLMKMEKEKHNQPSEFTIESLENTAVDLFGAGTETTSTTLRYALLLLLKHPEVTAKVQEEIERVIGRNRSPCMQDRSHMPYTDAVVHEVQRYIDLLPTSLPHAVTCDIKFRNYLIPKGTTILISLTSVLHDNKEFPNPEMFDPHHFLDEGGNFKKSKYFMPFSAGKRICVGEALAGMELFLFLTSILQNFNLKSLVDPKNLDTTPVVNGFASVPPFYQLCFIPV

Turning to `Nc1nc2ccccc2n1Cc1ccc(F)cc1`, on human CYP2C19 [1], the “CYP2C19 Efficacy (in parenthesis)” value is reported as 17.62 ± 3.69 (-115 ± 18) % and the IC50 is 17.6 µM. Further, on human CYP2D6, the “CYP2D6 Efficacy (in parenthesis)” value is 0.67 ± 0.04 (-102 ± 1) % and the IC50 amounted to 0.67 µM. For the same compound, on human CYP1A2, the “CYP1A2 Efficacy (in parenthesis)” value was 19.77 ± 4.14 (-57 ± 9) % and the IC50 was determined as 19.8 µM.
The compound `Cc1cc(-c2cc(C)c(N)c(C)c2)cc(C)c1N` [3,3'.5,5'-Tetramethylbenzidine] had an IC50 against human CYP1A2 of 0.45 µM.
Regarding `CCC(C)(C)c1ccc(O)cc1` [4-(2-Methylbutan-2-yl)phenol], the AC50 on human CYP2C9 (setting [3]) came to 14.8 µM; on human CYP2C19 [2] (setting [4]), 4.21 µM.
The matching figures for `Sc1ncnc2nc[nH]c12` [6-Mercaptopurine]: 22 µM and 34.7 µM.
With `COC(=O)N[C@H](C(=O)N[C@@H](Cc1ccccc1)[C@@H](O)CN(Cc1ccc(-c2ccccn2)cc1)NC(=O)[C@@H](NC(=O)OC)C(C)(C)C)C(C)(C)C` [Atazanavir], the IC50 against human CYP2C9 amounted to 15.5 µM; on human CYP2C19 [2], 36.4 ± 6.55 µM.
Turning to `CC(C)(c1ccc(O)cc1)c1ccc(O)cc1` [Bisphenol A], the values for the AC50 on human CYP2C9 (setting [3]) and at human CYP2C19 [2] (setting [4]) were 29.1 µM and 20 µM, respectively.
As for `CC(C)C[C@H]1C(=O)N2CCC[C@H]2[C@]2(O)O[C@](NC(=O)[C@@H]3C=C4c5cccc6[nH]c(Br)c(c56)C[C@H]4N(C)C3)(C(C)C)C(=O)N12` [Bromocriptine mesylate], the IC50 on human CYP2C9 (setting [5]) is 7.32 µM; against human CYP2C19 [2] (setting [6]), 20.8 µM.
Turning to `CC1(C)C(C=C(Cl)Cl)C1C(=O)OC(C#N)c1cccc(Oc2ccccc2)c1` (stereo not shown) [Cypermethrin], the AC50 at human CYP2C9 (setting [3]) came out at 11.9 µM; on human CYP2C19 [2] (setting [4]), 24.6 µM.
In the case of `CC(=O)O[C@]1(C(C)=O)CC[C@H]2[C@@H]3C=C(Cl)C4=CC(=O)[C@@H]5C[C@@H]5[C@]4(C)[C@H]3CC[C@@]21C` [Cyproterone acetate], the half-maximal activity concentration (AC50) on human CYP2C9 (setting [3]) came to 15 µM. Also, the “CYP2C19 AC50 (half-maximal activity concentration)” value at human CYP2C19 [1] was “Inconclusive inhibitor”. Besides, the “CYP2D6 AC50 (half-maximal activity concentration)” value at human CYP2D6 is reported as “Inactive”. Further, the “CYP1A2 AC50 (half-maximal activity concentration)” value at human CYP1A2 was “Inactive”.
With `C[C@]12CCC(=O)C=C1[C@@H]1C[C@@H]1[C@H]1[C@@H]3[C@@H]4C[C@@H]4[C@@]4(CCC(=O)O4)[C@@]3(C)CC[C@@H]12` [Drospirenone], the values for the concentration at half-maximal activity (AC50) at human CYP2C9 and at human CYP2C19 [2] were 26.4 ± 7.81 µM and 1.17 ± 0.35 µM, respectively.
Turning to `CC(=O)Oc1ccc2c(c1)CC[C@@H]1[C@@H]2CC[C@]2(C)[C@@H](O)CC[C@@H]12` [Estradiol acetate], half-maximal activity on human CYP2C19 [2] (AC50) was put at 20.6 ± 4.65 µM.
On to `CCCSP(=O)(OCC)SCCC` [Ethoprop], for which the values for the AC50 on human CYP2C9 (setting [3]) and on human CYP2C19 [2] (setting [4]) were 37 µM and 20 µM, respectively.
On the same counts, the results for `Cl[C@H]1[C@H](Cl)[C@@H](Cl)[C@@H](Cl)[C@H](Cl)[C@H]1Cl` [Lindane] are 43.2 µM and 35.7 µM.
As to `CN(C)C(=O)C(CCN1CCC(O)(c2ccc(Cl)cc2)CC1)(c1ccccc1)c1ccccc1` [Loperamide hydrochloride], the activity at human CYP2C19 [2] (setting [4]) was half-maximal at 40.5 µM (AC50).
For the compound `Cc1nc2ccccc2c(=O)n1-c1ccccc1Cl` [Mecloqualone], the results for the AC50 on human CYP2C9 (setting [3]) and at human CYP2C19 [2] (setting [4]) were 37.7 µM and 2.88 µM, respectively.
On the same counts, the results for `COCC(=O)N(c1c(C)cccc1C)C(C)C(=O)OC` (stereo not shown) [Metalaxyl] are 59.1 µM and 38.4 µM.
For `CCOC(=O)C1=C(C)NC(C)=C(C(=O)OC)C1c1cccc([N+](=O)[O-])c1` (stereo not shown) [Nitrendipine], the IC50 was 0.88 µM on human CYP2C9 (setting [5]) and 1.4 µM against human CYP2C19 [2] (setting [6]).
Regarding `CC(=O)Oc1ccc(C2(c3ccc(OC(C)=O)cc3)C(=O)Nc3ccccc32)cc1` [Oxyphenisatin acetate], the results for the AC50 on human CYP2C9 (setting [3]) and at human CYP2C19 [2] (setting [4]) were 5.5 µM and 11.9 µM, respectively.
Turning to `O=c1[nH]c2ccccc2n1C1CCN(CCCC(c2ccc(F)cc2)c2ccc(F)cc2)CC1` [Pimozide], the “CYP1A2 AC50 (half-maximal activity concentration)” value on human CYP1A2 was “Inactive”.
On to `COc1cc([C@@H]2c3cc4c(cc3[C@H](O)[C@H]3COC(=O)[C@H]23)OCO4)cc(OC)c1OC` [Podofilox], for which the IC50 against human CYP2C9 was 1.97 µM; on human CYP2C19 [2] (setting [6]), 3.71 µM.
`COCCCC/C(=N\OCCN)c1ccc(C(F)(F)F)cc1` [fluvoxamine, reference compound] yielded an IC50 against human CYP1A2 (human) of 0.2 µM.

As a reminder, the IC50 is the midpoint of a concentration-inhibition curve. Usually AC50 stands for the midpoint of the concentration-response curve, whichever way the signal moves. A high value points to activity only at high concentration.
